Source: US20040023924A1, “Use of xyloglucan polymers and oligomers, and derivative compounds, as phytosanitary products and biofertilizers” (priority 2000, published 2004)

Key:
[1] = system: Rubus fruticosus protoplasts; experiment: Elicitation of an oxidative burst: generation of H2O2 (pyranine quenching); format: cell-based; details: 25° C.
Description: (§1) Preparation of Rubus fruticosus protoplasts according to Vargas-Rechia (1998). The protoplast yield is of the order of 70 to 85% of the initial number of cells used; the viability of the protoplasts, of the order of 90 to 95%, was checked using Evans blue indicator.
H2O2 assay according to Apostol et al. (1989). Incubation at different temperatures of 1.10^6 protoplasts in microplate wells in the presence of 2 μM pyranine λex 405 nm, λcm 512 nm), of the elicitor (0 to 100 μM): 2′-fucosyl-lactose (compound A), xyloglucan XXFGol, corresponding to the reduced form of fucosylated nonasaccharide of which the sugar X4 is in reduced form (compound B). The variations in pyranine fluorescence (ΔF512 min^−1) allow H2O2 assay.
Evaluation of the experimental data: The reaction rate is given by (ΔF512 min^−1). At least three kinetic curves are plotted per sample and per experimental condition. One point on the graph corresponds to the slope of the regression curve deduced from at least 6 kinetic curves.
The oxidative “burst” is evaluated according to the “quenching ” of the pyranine at 25° C.; the 100% reference value corresponds to the fluorescence in the controls (non-elicited protoplast suspensions)

[2] = system: Phospholipase D (E.C: 3.1.4.4); experiment: Elicitation of phospholipase D activity (NBD-PE fluorescence); format: cell-based, Acer pseudoplatanus L.; details: for Optimal Plase D response (100% = non-elicited cells): at the optimal concentration
Text: Vegetable material: Acer pseudoplatanus L. cells in Suspension
Phospholipase D (E.C: 3.1.4.4) (Plase D) activity: this is a phosphatidylcholine phosphatidohydrolase which releases the O-R3 group, according to the diagram below. To the extent that O-R3 is marked (a fluorochrome for example), quantifying this group is equivalent to assaying Plase D activity. For the experiments the substrate used is phosphatidylcholine conjugated to a fluorochrome, i.e. the product nitrobenzoxadiazole phosphoethanolamine (NBD-PE). The retained excitation and emission wavelengths of the fluorochrome are 460 nm and 534 nm respectively. [drawing 5]
Principle: assaying Plase D activity is equivalent to estimating the fluorescence variation at 534 nm of a reaction medium with a spectrofluorimeter (Perkin Elmer).
Test: the reaction medium in a microtitration plate well is as follows: 1.3 10^7 Acer pseudoplatanus L. cells are incubated in a 50 mM HEPES buffer, pH 6.8 enriched with CaCl2 (1 μM), ATP (2 μM), octyl-D-glucoside 50 μM, GTP (6 μM) in the presence of the NBD-PE substrate (4 μM), in the presence or absence of an elicitor (0-100 nM): 2′-fucosyl-lactose (FL), compound A; XXFGol, compound B, in the presence or not in the presence of a methyl jasmonate effector (0-5 nM). The Plase D activity assay is carried out by measuring the fluorescence at 534 nm.
Evaluation of the experimental data. For each sample at least three kinetics are recorded; the Plase D activity is given by the slope of the regression curve. The results are expressed by Δ F534 min^−1. One point on the graph corresponds to the linear regression treatment of at least 2 kinetic curves originating from 2 different samples.
The Plase D elicitation response is evaluated according to the fluorescence variation at […]; the 100% reference value corresponds to the fluorescence in the controls (non-elicited cells)

vine = experiment: Induction of cold resistance in the vine (cold protection index after foliar spraying); format: in vivo, vine (variety Chenin); details: vine plants
Description: Plants originating from different vine varieties (Chenin, Grolleau, Carignan, Cabernet sauvignon, Cabernet Sauvignon, Pinot noir, Merlot, Chardonnay, Gamay etc.) are used for the study. Each sample, comprising 5 to 10 plants, is treated with foliar spraying at the end of the bud development (starting from vegetative stage 7 on the BBCH scale), or during the inflorescence development period (starting from vegetative stage 12) or at the start of flowering (as from stage 19), with the elicitor (oligomer: XXFG; derivative: 2′-fucosyl lactose) in solution at a variable dose (0.03 mg/l ≦dose≦3.3 mg/l; the spraying of 2.5 ml of solution per plant is carried out using a hand sprayer (deviation of +/−1%).
After treatment, the plants are exposed to cold stress of variable duration and intensity (for example, temperature varying from −2° C. to −5° C.; duration less than or equal to 240 minutes).
After exposure to the cold, the plants are placed in a climatic chamber at 20° C. with a 12-hour day/night alternation. […] The effects of the cold are evaluated by observing the foliar necroses induced by frost and the plants are kept for several months in order to monitor their subsequent development.
The proportion P (%) of foliar necroses observed 3 hours or 24 hours or 48 hours or 72 hours after the cold stress is counted, and the results are expressed by the protection index I=(100-P) %. […]

[3] = system: Rubus fruticosus protoplasts; experiment: Elicitation of an oxidative burst: generation of superoxide anion (Cyt c assay); format: cell-based; details: 25° C.; for Cytochrome c reduction response (100% = non-elicited controls): at 10 nM; for Optimal response, cytochrome c reduction (100% = non-elicited controls): at the optimal dose
Description: as §1
The Cyt c assay was carried out according to Nakanishi et al. (1991) in the following manner. Incubation at 25° C. of 4.10^6 protoplasts in the presence of Cyt c (100 μM), and of the elicitor (0 to 100 μM): 2′-fucosyl lactose (compound A), XXFGol (compound B).
Evaluation of the experimental data: The reaction rate is given by (AF340 min^−1). At least three kinetic curves are plotted per experimental condition. One point on the graph corresponds to the slope of the regression curve deduced from at least 6 kinetic curves.
The elicitation response is evaluated according to the cytochrome c reduction measured by the absorbance variation at […]; the 100% reference value corresponds to the reduction count of the controls (non-elicited protoplast suspensions).

Elicitor concentration of optimal Plase D response [2] [nM] | Plase D elicitation: methyl jasmonate versus 2′-fucosyl lactose ([2]; methyl jasmonate 0 to 5 nM, 2′-fucosyl lactose 1 nM, dose-dependent) | Structure (SMILES) | Peroxide accumulation, effect of temperature ([1]; 10 nM, 20° C., 15° C., 10° C.) | Elicitor dose of optimal response, generation of H2O2 ([1]; pyranine quenching) [nM] | Optimal response, generation of H2O2 (100% = non-elicited controls) ([1]; at the optimal dose) [%] | Optimal Plase D response (100% = non-elicited cells) [2] [%] | Cold-resistance-inducer effect, efficiency compared with XXFG (vine) | Elicitor dose of optimal response, cytochrome c reduction (superoxide anion) [3] [nM] | Cytochrome c reduction response (100% = non-elicited controls) [3] [%] | Optimal response, cytochrome c reduction (100% = non-elicited controls) [3] [%]
1 | antagonistic | C[C@@H]1O[C@@H](O[C@H]2[C@H](O[C@H]3[C@H](O)[C@@H](O)[C@H](O)O[C@@H]3CO)O[C@H](CO)[C@H](O)[C@@H]2O)[C@@H](O)[C@H](O)[C@@H]1O [compound A, α-L-Fuc(1→2)β-D-Gal(1→4)β-D-Glc] | lower at a low temperature | 10 | 225 | 244 | equal or slightly lower efficiency | 50 | 187 | 200
1.7 | – | CO[C@@H]1OC[C@@H](O)[C@H](O)[C@H]1O[C@@H]1O[C@H](CO)[C@H](O)[C@H](O)[C@H]1O[C@@H]1O[C@@H](C)[C@@H](O)[C@@H](O)[C@@H]1O [compound B, methyl α-L-Fuc (1→2)β-D-Gal (1→2)β-D-Xyl] | – | – | – | 230 | – | 15 | 160 | 159
